This note sets out measurements from ChEMBL document CHEMBL4673352, “Discovery of AZD4573, a Potent and Selective Inhibitor of CDK9 That Enables Short Duration of Target Engagement for the Treatment of Hematological Malignancies” (J Med Chem, 2020).

In brackets after ≈: the same amount, converted by molar mass. Activity calls are given as the source filed them.

Series [1] in a line: Solubility of compound in pH 7.4 PBS buffer using crystalline form of sample. Type of series: physicochemical.
Series [2] in a line: Solubility of compound in pH 4 0.1 M acetate buffer using crystalline form of sample. Type of series: physicochemical.
A short description of series [3]: Drug metabolism in human liver microsome assessed as (1S,3R)-3-acetamido-N-(5-chloro-4-(5-(4-hydroxybutyl)-1H-pyrazol-4-yl)pyridin-2-yl)cyclohexanecarboxamide formation at 10 uM measured after 1 hr in presence of NADPH by LC-UV-MS analysis. The series is classed as ADME. The note with it: microsomes.
Series [4] can be described thus: Drug metabolism in human liver microsome assessed as 4-(4-(2-((1S,3R)-3-acetamidocyclohexanecarboxamido)-5-chloropyridin-4-yl)-1H-pyrazol-5-yl)butanoic acid formation at 10 uM measured after 1 hr in presence of NADPH by LC-UV-MS analysis. The series is classed as ADME. To be noted: microsomes. (In general: Liver microsomes are a subcellular fraction often used to study metabolism.)

Series [5] can be described thus: Drug metabolism in human hepatocytes assessed as (1S,3R)-3-acetamido-N-(5-chloro-4-(7-hydroxy-4,5,6,7-tetrahydropyrazolo[1,5-a]pyridin-3-yl)pyridin2-yl)cyclohexanecarboxamide metabolite formation. Type of series: ADME, cell-based, Hepatocyte.
Series [6] in a line: Drug metabolism in human hepatocytes assessed as (1S,3R)-3-acetamido-N-(5-chloro-4-(5-(4-hydroxybutyl)-1H-pyrazol-4-yl)pyridin-2-yl)cyclohexanecarboxamide metabolite formation. The series is classed as ADME, cell-based, Hepatocyte.
A short description of series [7]: Clearance in Beagle dog plasma at […], iv administered as 0.25 hrs infusion. The series is classed as ADME, organism-based, Canis lupus familiaris. The note with it: dose 0.24 µmol/kg.
In a further series the target is CDK9/cyclin T1 (Homo sapiens, UniProt P50750). Nature of the series: Binding affinity to human CDK9/CyclinT assessed as equilibrium dissociation constant by surface plasmon resonance analysis. The series is classed as protein-complex assay.
The species entered for series [8] is Homo sapiens. The series is described as follows: Selectivity ratio of IC50 for human recombinant N-terminal GST-TEV tagged CDK12 (696 to 1082 residues)/full length human CyclinK expressed in baculovirus expression system to IC50 for Inhibition of recombinant full length human N-terminal GST-fused CDK9 (1 to 372 residues)/His-tagged CyclinT1 (1 to 726 residues) expressed in baculovirus infected insect cells.

For series [9], the species on record is Homo sapiens. Nature of the series: Selectivity ratio of IC50 for CDK6 (unknown origin) in presence of 5 mM ATP to IC50 for Inhibition of recombinant full length human N-terminal GST-fused CDK9 (1 to 372 residues)/His-tagged CyclinT1 (1 to 726 residues) expressed in baculovirus infected insect cells.
Series [10] is described as follows: Volume of distribution at steady state in Beagle dog at […], iv administered over 0.25 hrs formulated as solution in DMSO/Captisol. The series is classed as ADME, organism-based, Canis lupus familiaris. The note with it: in vivo, dose 0.24 µmol/kg, read-out: Vdss.
The species named for series [11] is Homo sapiens. Nature of the series: Selectivity ratio of IC50 for recombinant full length human CDK7/cyclinH1/MAT1 expressed in insect cells to IC50 for Inhibition of recombinant full length human N-terminal GST-fused CDK9 (1 to 372 residues)/His-tagged CyclinT1 (1 to 726 residues) expressed in baculovirus infected insect cells.
In a further series the test system is MV4-11. Nature of the series: Antitumor activity against human MV4-11 cells xenografted in CB17 SCID mouse assessed as tumor growth inhibition at 5 mg/kg, ip BID administered at 2 hrs dose interval with 2 days on and 5 days off dosing schedule measured 33 days post initial dose. Type of series: functional. To be noted: MV4-11, ip, 792 h, time 33 day, read-out: TGI. (In general: A xenograft is tissue or cells of one species grown in another, often human tumour cells in immunodeficient mice.)

Series [12] addresses Glycogen synthase kinase-3 alpha (Homo sapiens, UniProt P49840). The series is described as follows: Inhibition of GSK3alpha (unknown origin) in presence of 5 mM ATP.
Series [13] can be described thus: Drug metabolism in human liver microsomes assessed as3-(4-(2-((1S,3R)-3-acetamidocyclohexanecarboxamido)-5-chloropyridin-4-yl)-1H-pyrazol-5-yl)-2,2-dimethylpropanoic acid formation at 10 uM measured after 1 hr in presence of NADPH by LC-UV-MS analysis. The series is classed as ADME, Microsome.
Series [14] concerns the target Glycogen synthase kinase-3 beta (Homo sapiens, UniProt P49841). Nature of the series: Inhibition of GSK3beta (unknown origin) at 0.1 uM incubated for 60 mins by TR-FRET based LanthaScreen Eu kinase binding assay relative to control. A general note: In TR-FRET formats the signal depends on donor and acceptor labels being close together.
Series [15] in a line: Clearance in Beagle dog plasma at 0.23 umol/kg, iv administered over 0.25 hrs formulated as solution in 10% DMSO/90% water. Type of series: ADME, organism-based, Canis lupus familiaris. To be noted: dose 0.23 µmol/kg.
For series [16], the target named is Dual specificity mitogen-activated protein kinase kinase 7 (Homo sapiens) (UniProt O14733). The series is described as follows: Inhibition of human recombinant […] using NK1a1 as substrate at 1 uM incubated for 40 mins in presence of [gamma32P]-ATP by scintillation counting method relative to control.
The nature of series [17]: Clearance in mouse plasma at 2.3 umol/kg, iv formulated as solution. The series is classed as ADME, organism-based. To be noted: dose 2.3 µmol/kg.
Series [18] concerns the target Cyclin-dependent kinase 9 (Mus musculus) (UniProt Q99J95). Nature of the series: In-vivo inhibition of CDK9 in mouse xenografted with human MV4-11 cells assessed as reduction in RNA Polymerase 2 CTD phosphorylation at Ser2 residues at 5 to 15 mg/kg, ip BID administered at 2 hrs dose interval with 2 days on and 5 days off dosing schedule by Western blot analysis. The note with it: dose 5-15 mg/kg. The series is classed as functional, organism-based.

The subject of the next series is NOMO-1. The series is described as follows: Antitumor activity against human NOMO1 cells xenografted in CB17 SCID mouse assessed as cell death at 5 mg/kg, ip BID administered at 2 hrs dosing interval with 2 days on and 5 days off dosing schedule. Type of series: functional, organism-based.
In series [19] the target is Mitogen-activated protein kinase 8 (Homo sapiens, UniProt P45983). Nature of the series: Inhibition of human recombinant full-length JNK1 using ATF2 as substrate at1 uM incubated for 40 mins in presence of [gamma32P]-ATP by scintillation counting method relative to control. To be noted: dose 1.0 µM.
Series [20] has as its target Insulin receptor (Homo sapiens) (UniProt P06213). Nature of the series: Inhibition of human recombinant INSR using KKKSPGEYVNIEF as substrate at 1 uM incubated for 40 mins in presence of [gamma32P]-ATP by scintillation counting method relative to control.
Series [21] deals with Mitogen-activated protein kinase kinase kinase 9 (Homo sapiens) (UniProt P80192). The series is described as follows: Inhibition of human recombinant MAP3K9 using casein as substrate at 1 uM incubated for 40 mins in presence of [gamma32P]-ATP by scintillation counting method relative to control.
Series [22] can be described thus: Volume of distribution at steady state in Beagle dog at 0.23 umol/kg, iv administered over 0.25 hrs formulated as solution in 10% DMSO/90% water. Type of series: ADME, organism-based, Canis lupus familiaris. The note with it: in vivo, dose 0.23 µmol/kg, read-out: Vdss.
Series [23] is described as follows: Half-life in mouse at 2.3 umol/kg, iv formulated as solution. To be noted: in vivo, dose 2.3 µmol/kg. Type of series: ADME, organism-based.
A short description of series [24]: Drug metabolism in human hepatocytes assessed as (1S,3R)-3-acetamido-N-(5-chloro-4-(5-(3-hydroxy-2,2-dimethylpropyl)-1H-pyrazol-4-yl)pyridin-2-yl)cyclohexanecarboxamide metabolite formation. The series is classed as ADME, cell-based, Hepatocyte.
Series [25] is described as follows: Volume of distribution at steady state in mouse at 2.3 umol/kg, iv formulated as solution. Type of series: ADME, organism-based. The note with it: in vivo, dose 2.3 µmol/kg, read-out: Vdss.
Series [26] concerns the target Casein kinase I isoform gamma-2 (Homo sapiens, UniProt P78368). The series is described as follows: Inhibition of CK1gamma2 (unknown origin) in presence of 5 mM ATP.

Sequence of CDK9/cyclin T1 (O60563 whole entry, the tested form may be a part): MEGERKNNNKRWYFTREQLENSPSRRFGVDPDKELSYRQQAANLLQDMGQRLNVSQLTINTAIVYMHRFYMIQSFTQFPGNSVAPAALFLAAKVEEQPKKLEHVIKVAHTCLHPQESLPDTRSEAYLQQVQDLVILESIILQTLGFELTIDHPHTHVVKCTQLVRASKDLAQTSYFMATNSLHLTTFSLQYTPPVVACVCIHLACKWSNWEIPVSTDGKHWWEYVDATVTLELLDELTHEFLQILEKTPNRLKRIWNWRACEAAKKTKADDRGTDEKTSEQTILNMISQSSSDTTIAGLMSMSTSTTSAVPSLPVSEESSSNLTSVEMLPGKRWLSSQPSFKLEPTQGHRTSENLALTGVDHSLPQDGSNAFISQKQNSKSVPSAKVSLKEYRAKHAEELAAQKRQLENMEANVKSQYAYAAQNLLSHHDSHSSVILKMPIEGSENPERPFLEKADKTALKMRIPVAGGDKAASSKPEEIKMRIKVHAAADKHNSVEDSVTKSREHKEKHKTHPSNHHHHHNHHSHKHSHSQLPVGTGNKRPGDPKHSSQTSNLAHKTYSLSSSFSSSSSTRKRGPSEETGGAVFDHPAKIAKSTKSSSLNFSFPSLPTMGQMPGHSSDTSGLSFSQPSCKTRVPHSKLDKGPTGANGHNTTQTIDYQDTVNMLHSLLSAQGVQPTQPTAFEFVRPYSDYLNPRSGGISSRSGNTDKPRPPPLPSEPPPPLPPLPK
Sequence of CDK9/cyclin T1 (P50750 whole entry, the tested form may be a part): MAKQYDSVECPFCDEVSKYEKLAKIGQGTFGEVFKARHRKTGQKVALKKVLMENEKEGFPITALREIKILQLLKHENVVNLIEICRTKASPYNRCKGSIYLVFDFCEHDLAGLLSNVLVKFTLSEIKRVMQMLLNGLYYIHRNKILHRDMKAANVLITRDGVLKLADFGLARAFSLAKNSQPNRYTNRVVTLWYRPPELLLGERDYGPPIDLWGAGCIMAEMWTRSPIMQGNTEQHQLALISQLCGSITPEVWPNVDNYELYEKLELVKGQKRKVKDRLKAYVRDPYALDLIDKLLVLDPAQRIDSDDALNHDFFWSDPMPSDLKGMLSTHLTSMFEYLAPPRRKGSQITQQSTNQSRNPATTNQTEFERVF
Sequence of Dual specificity mitogen-activated protein kinase kinase 7 (Homo sapiens) (O14733 whole entry): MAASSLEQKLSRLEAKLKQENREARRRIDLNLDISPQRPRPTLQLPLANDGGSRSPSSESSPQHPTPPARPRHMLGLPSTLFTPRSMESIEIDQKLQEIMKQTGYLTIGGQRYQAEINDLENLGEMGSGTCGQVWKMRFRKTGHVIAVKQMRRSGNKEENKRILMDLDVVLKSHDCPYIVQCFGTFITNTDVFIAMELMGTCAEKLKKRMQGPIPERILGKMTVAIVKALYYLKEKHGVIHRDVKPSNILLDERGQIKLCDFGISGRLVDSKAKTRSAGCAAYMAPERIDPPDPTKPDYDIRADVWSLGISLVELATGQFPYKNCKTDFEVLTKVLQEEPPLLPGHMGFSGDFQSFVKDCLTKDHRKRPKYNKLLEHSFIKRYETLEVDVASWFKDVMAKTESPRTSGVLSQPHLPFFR
Sequence of Mitogen-activated protein kinase 8 (P45983 whole entry): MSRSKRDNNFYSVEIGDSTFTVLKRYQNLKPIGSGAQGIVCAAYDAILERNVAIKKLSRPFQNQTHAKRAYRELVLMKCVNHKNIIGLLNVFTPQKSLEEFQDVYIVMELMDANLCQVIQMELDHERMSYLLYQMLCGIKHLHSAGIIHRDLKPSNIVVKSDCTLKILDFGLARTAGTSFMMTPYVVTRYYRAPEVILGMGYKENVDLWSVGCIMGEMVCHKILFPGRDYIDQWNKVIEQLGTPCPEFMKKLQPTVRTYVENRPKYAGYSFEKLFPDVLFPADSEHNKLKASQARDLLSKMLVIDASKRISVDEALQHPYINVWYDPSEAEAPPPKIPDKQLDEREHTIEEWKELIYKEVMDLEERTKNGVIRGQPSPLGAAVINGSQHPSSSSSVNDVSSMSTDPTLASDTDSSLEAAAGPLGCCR
Sequence of Glycogen synthase kinase-3 beta (P49841 whole entry, looked up): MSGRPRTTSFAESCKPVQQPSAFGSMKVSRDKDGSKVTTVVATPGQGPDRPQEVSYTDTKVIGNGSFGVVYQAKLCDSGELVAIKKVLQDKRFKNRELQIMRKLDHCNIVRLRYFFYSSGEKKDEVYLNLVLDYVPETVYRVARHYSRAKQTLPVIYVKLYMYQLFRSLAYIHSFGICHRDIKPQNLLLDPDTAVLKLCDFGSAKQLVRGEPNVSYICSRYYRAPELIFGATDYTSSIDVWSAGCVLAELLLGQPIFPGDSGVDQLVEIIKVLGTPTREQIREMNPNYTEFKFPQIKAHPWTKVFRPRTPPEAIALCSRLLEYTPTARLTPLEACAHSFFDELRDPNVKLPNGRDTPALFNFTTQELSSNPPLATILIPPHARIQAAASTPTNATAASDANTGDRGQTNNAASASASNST
Sequence of Mitogen-activated protein kinase kinase kinase 9 (Homo sapiens) (P80192 whole entry, looked up): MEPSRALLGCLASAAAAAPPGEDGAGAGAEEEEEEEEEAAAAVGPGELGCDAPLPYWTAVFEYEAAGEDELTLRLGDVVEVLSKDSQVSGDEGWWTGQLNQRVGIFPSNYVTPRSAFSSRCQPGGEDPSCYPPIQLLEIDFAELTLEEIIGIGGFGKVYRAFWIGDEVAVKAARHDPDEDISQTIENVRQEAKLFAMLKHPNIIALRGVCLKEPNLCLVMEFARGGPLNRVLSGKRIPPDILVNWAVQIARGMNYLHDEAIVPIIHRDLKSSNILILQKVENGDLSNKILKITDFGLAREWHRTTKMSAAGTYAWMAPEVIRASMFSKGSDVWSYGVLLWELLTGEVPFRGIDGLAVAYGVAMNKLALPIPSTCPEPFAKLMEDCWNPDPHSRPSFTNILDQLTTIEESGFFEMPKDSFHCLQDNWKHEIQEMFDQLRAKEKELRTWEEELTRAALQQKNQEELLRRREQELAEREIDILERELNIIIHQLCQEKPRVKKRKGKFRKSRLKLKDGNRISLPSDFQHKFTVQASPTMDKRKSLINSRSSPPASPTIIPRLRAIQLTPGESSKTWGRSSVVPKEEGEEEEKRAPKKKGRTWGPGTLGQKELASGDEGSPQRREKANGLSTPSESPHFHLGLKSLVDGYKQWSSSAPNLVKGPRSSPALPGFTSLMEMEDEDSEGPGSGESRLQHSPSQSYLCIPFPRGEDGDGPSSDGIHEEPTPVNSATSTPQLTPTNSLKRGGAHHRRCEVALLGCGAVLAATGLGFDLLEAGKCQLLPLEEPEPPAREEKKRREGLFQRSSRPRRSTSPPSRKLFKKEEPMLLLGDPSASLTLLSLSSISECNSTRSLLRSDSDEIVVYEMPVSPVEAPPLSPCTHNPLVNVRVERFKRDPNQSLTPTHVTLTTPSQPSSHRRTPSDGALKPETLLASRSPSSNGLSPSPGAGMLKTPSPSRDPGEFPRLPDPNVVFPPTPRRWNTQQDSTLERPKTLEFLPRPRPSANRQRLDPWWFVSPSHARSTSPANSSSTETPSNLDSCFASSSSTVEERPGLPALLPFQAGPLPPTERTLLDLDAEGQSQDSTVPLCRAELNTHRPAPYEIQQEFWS
Sequence of Glycogen synthase kinase-3 alpha (P49840 whole entry): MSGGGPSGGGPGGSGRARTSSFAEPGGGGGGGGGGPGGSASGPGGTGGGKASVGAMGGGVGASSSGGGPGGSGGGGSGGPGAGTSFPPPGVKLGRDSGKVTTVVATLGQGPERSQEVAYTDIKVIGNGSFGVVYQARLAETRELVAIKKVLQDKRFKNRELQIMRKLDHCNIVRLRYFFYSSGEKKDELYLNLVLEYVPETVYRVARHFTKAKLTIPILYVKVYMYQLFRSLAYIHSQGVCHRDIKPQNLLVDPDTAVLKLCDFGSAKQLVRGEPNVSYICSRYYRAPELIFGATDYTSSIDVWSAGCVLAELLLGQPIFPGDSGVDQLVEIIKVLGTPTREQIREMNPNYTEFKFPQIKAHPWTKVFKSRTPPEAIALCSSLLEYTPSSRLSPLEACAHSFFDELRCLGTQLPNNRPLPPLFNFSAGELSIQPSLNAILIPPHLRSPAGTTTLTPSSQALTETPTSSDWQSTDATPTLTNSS
Sequence of Cyclin-dependent kinase 9 (Mus musculus) (Q99J95 whole entry): as the sequence (P50750 whole entry, the tested form may be a part) above, with S17T, R37K, K40Q, N258K, Y262F counted along it
Sequence of Casein kinase I isoform gamma-2 (P78368 whole entry, canonical isoform): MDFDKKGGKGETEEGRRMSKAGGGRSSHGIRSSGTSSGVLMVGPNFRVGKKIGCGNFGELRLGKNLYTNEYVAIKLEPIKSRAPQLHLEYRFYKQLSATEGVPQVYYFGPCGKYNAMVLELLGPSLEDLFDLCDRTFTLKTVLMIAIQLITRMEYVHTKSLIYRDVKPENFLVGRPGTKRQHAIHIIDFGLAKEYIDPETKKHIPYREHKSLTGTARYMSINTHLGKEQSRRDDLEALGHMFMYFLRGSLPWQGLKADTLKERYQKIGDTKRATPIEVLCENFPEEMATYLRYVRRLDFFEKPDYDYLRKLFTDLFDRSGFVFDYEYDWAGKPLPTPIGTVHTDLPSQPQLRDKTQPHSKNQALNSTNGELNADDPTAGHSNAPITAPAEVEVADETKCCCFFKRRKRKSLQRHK

On to `CC(=O)N[C@@H]1CCC[C@H](C(=O)Nc2cc(-c3cnn4c3CCCC4)c(Cl)cn2)C1`, for which the solubility (thermodynamic) – broadly, solubility found after equilibrating the solid with the medium – in [1] was determined as 94 µg/mL (≈ 226 µM); in [2], 210 µg/mL (≈ 505 µM). For the same compound, the Drug metabolism result in series [3], in series [4], in series [5] and in series [6] was “Metabolite_Detected” throughout.

Consider `CC(=O)N[C@@H]1CCC[C@H](C(=O)Nc2cc(-c3cnn4c3CC(C)(C)C4)c(F)cn2)C1`, for which the clearance – broadly, the volume of plasma or blood freed of the substance per unit of time – at 0.25 h in [7] was 53 mL/min/kg. The Kd – broadly, the equilibrium constant for the complex coming apart – on CDK9/cyclin T1 was 0.123 nM. The Ratio IC50 in the series filed under Homo sapiens [8], in the series filed under Homo sapiens [9] and in the series filed under Homo sapiens [11] was 16 in each case. In series [10], the Vd at 0.25 h was 1.2 L/kg.

Take `CC(=O)N[C@@H]1CCC[C@H](C(=O)Nc2cc(-c3cnn4c3CC(C)(C)C4)c(Cl)cn2)C1` [ZEMIRCICLIB]: in the series on MV4-11, the inhibition in vivo at 5 mg/kg was 97%. For the same compound, the results for the half-maximal inhibitory concentration (IC50) in series [12] and in [26] were 187 nM and 6660 nM, respectively. The Drug metabolism result in series [13] and in series [24] was “Metabolite_Detected” in each case. The inhibition – broadly, the percentage by which the read-out fell short of the control – in series [14] is 100%; in series [16] it was 85%; in series [19], 90%; in series [20], 83%; in series [21] it was 82%. Moreover, the figures for the clearance in series [15] and in series [17] were 16 mL/min/kg and 55 mL/min/kg, respectively. Moreover, the inhibition entry in series [18] is “Active”. Also, in the series with NOMO-1, the result was Active. Further, the figures for the Vd in [22] and in series [25] were 0.67 L/kg and 0.45 L/kg, respectively. The half-life (as a rule, the time needed for the level to fall by half in the phase considered) in [23] is 10.8 min.
